{"source": "ChEMBL document CHEMBL5321213", "about": "“Nicolaioidesin C: An Antiausterity Agent Shows Promising Antitumor Activity in a Pancreatic Cancer Xenograft Mouse Model” (J Nat Prod, 2023)", "key": {"[1]": {"test_system": "MIA PaCa-2", "assay": "Antitumor activity against human MIA PaCa-2 cells xenografted in athymic BALB/c-nu mouse assessed as fold change in cytidine level in tumor at 2 mg/kg/day, ip administered five times per week for 4 weeks by LC-MS analysis", "type": "functional"}, "[2]": {"test_system": "MIA PaCa-2", "assay": "Antitumor activity against human MIA PaCa-2 cells xenografted in athymic BALB/c-nu mouse assessed as fold change in glycerol-3-phosphate level in tumor at 10 mg/kg/day, ip administered five times per week for 4 weeks by LC-MS analysis", "type": "functional"}, "[3]": {"test_system": "MIA PaCa-2", "assay": "Antitumor activity against human MIA PaCa-2 cells xenografted in athymic BALB/c-nu mouse assessed as fold change in benzoic acid level in tumor at 2 mg/kg/day, ip administered five times per week for 4 weeks by LC-MS analysis", "type": "functional"}, "[4]": {"test_system": "PANC-1", "assay": "Inhibition of Akt/mTOR signaling pathway in human PANC-1 cells in nutrient-deprived medium assessed as reduction in mTOR phosphorylation at S2481 residue measured after 6 hrs by Western blot analysis", "type": "cell-based", "conditions": "dose 5-20 µM"}, "[5]": {"test_system": "MIA PaCa-2", "assay": "Antimetastatic activity in human MIA PaCa-2 cells in DMEM media assessed as inhibition of colony formation at 40 uM incubated for 24 hrs followed by replacement with fresh medium and measured after 10 days by crystal violet staining-based assay relative to control", "type": "functional"}, "[6]": {"test_system": "MIA PaCa-2", "assay": "Antitumor activity against human MIA PaCa-2 cells xenografted in athymic BALB/c-nu mouse assessed as fold change in sphinganine level in tumor at 10 mg/kg/day, ip administered five times per week for 4 weeks by LC-MS analysis", "type": "functional"}, "[7]": {"test_system": "PANC-1", "assay": "Preferential cytotoxicity against human PANC-1 cells in nutrient-deprived medium assessed as alteration in cell morphology by measuring rupture of cell membrane at 5 uM measured after 24 hrs by acridine orange and ethidium bromide dual fluorescent staining based imaging analysis", "type": "functional"}, "[8]": {"test_system": "MIA PaCa-2", "assay": "Antitumor activity against human MIA PaCa-2 cells xenografted in athymic BALB/c-nu mouse assessed as fold change in methionine level in tumor at 2 mg/kg/day, ip administered five times per week for 4 weeks by LC-MS analysis", "type": "functional"}, "[9]": {"test_system": "MIA PaCa-2", "assay": "Antitumor activity against human MIA PaCa-2 cells xenografted in athymic BALB/c-nu mouse assessed as reduction in mTOR phosphorylation at S2481 residue in tumor at 10 mg/kg/day, ip administered five times per week for 4 weeks by Western blot analysis", "type": "functional, organism-based"}, "[10]": {"test_system": "MIA PaCa-2", "assay": "Antitumor activity against human MIA PaCa-2 cells xenografted in athymic BALB/c-nu mouse assessed as fold change in 3-sulfolacticacid level in tumor at 10 mg/kg/day, ip administered five times per week for 4 weeks by LC-MS analysis", "type": "functional"}, "[11]": {"test_system": "MIA PaCa-2", "assay": "Antitumor activity against human MIA PaCa-2 cells xenografted in athymic BALB/c-nu mouse assessed as fold change in phenyl alanine level in tumor at 2 mg/kg/day, ip administered five times per week for 4 weeks by LC-MS analysis", "type": "functional"}, "[12]": {"test_system": "MIA PaCa-2", "assay": "Antitumor activity against human MIA PaCa-2 cells xenografted in athymic BALB/c-nu mouse assessed as fold change in Gly-Leu metabolite level in tumor at 10 mg/kg/day, ip administered five times per week for 4 weeks by LC-MS analysis", "type": "functional"}, "[13]": {"test_system": "MIA PaCa-2", "assay": "Antitumor activity against human MIA PaCa-2 cells xenografted in athymic BALB/c-nu mouse assessed as fold change in asparagine level in tumor at 10 mg/kg/day, ip administered five times per week for 4 weeks by LC-MS analysis", "type": "functional"}, "[14]": {"test_system": "MIA PaCa-2", "assay": "Antitumor activity against human MIA PaCa-2 cells xenografted in athymic BALB/c-nu mouse assessed as tumor wet weight at 2 mg/kg/day, ip administered five times per week for 4 weeks (reference value: 368 mg)", "type": "functional"}, "[15]": {"test_system": "PANC-1", "assay": "Antimetastatic activity in human PANC-1 cells in DMEM media assessed as inhibition of colony formation at 40 uM incubated for 24 hrs followed by replacement with fresh medium and measured after 10 days by crystal violet staining-based assay relative to control", "type": "functional"}, "[16]": {"test_system": "PANC-1", "assay": "Preferential cytotoxicity against human PANC-1 cells in nutrient-deprived medium assessed as alteration in cell morphology by measuring cell blebbing at 5 uM measured after 24 hrs by acridine orange and ethidium bromide dual fluorescent staining based imaging analysis", "type": "functional"}, "[17]": {"test_system": "MIA PaCa-2", "assay": "Antitumor activity against human MIA PaCa-2 cells xenografted in athymic BALB/c-nu mouse assessed as fold change in glutamic acid level in tumor at 10 mg/kg/day, ip administered five times per week for 4 weeks by LC-MS analysis", "type": "functional"}, "[18]": {"test_system": "MIA PaCa-2", "assay": "Antitumor activity against human MIA PaCa-2 cells xenografted in athymic BALB/c-nu mouse assessed as fold change in tetramethyl urea level in tumor at 2 mg/kg/day, ip administered five times per week for 4 weeks by LC-MS analysis", "type": "functional"}, "[19]": {"test_system": "MIA PaCa-2", "assay": "Inhibition of autophagy in human MIA PaCa-2 cells in nutrient-deprived medium assessed as downregulation of LC3-II protein expression measured after 6 hrs by Western blot analysis", "type": "functional, cell-based", "conditions": "dose 5-20 µM"}, "[20]": {"test_system": "MIA PaCa-2", "assay": "Inhibition of Akt/mTOR signaling pathway in human MIA PaCa-2 cells in DMEM media assessed as reduction in mTOR phosphorylation at S2481 residue at 5 to 20 uM measured after 6 hrs by Western blot analysis", "type": "cell-based", "conditions": "dose 5-20 µM"}, "[21]": {"test_system": "MIA PaCa-2", "assay": "Antitumor activity against human MIA PaCa-2 cells xenografted in athymic BALB/c-nu mouse assessed as reduction in Akt phosphorylation at S473 residue in tumor at 10 mg/kg/day, ip administered five times per week for 4 weeks by Western blot analysis", "type": "functional, organism-based"}, "[22]": {"test_system": "MIA PaCa-2", "assay": "Antitumor activity against human MIA PaCa-2 cells xenografted in athymic BALB/c-nu mouse assessed as fold change in N-acetylneuraminicacid level in tumor at 10 mg/kg/day, ip administered five times per week for 4 weeks by LC-MS analysis", "type": "functional"}, "[23]": {"test_system": "MIA PaCa-2", "assay": "Antitumor activity against human MIA PaCa-2 cells xenografted in athymic BALB/c-nu mouse assessed as fold change in serine level in tumor at 10 mg/kg/day, ip administered five times per week for 4 weeks by LC-MS analysis", "type": "functional"}, "[24]": {"test_system": "MIA PaCa-2", "assay": "Antitumor activity against human MIA PaCa-2 cells xenografted in athymic BALB/c-nu mouse assessed as fold change in biotin level in tumor at 10 mg/kg/day, ip administered five times per week for 4 weeks by LC-MS analysis", "type": "functional"}, "[25]": {"test_system": "MIA PaCa-2", "assay": "Antitumor activity against human MIA PaCa-2 cells xenografted in athymic BALB/c-nu mouse assessed as fold change in tetramethyl urea level in tumor at 10 mg/kg/day, ip administered five times per week for 4 weeks by LC-MS analysis", "type": "functional"}, "[26]": {"test_system": "MIA PaCa-2", "assay": "Antitumor activity against human MIA PaCa-2 cells xenografted in athymic BALB/c-nu mouse assessed as reduction in LC3-II level in tumor at 2 to 10 mg/kg/day, ip administered five times per week for 4 weeks by immunohistochemistry analysis", "type": "functional, organism-based", "conditions": "dose 2-10 mg/kg/day"}, "[27]": {"test_system": "MIA PaCa-2", "assay": "Antitumor activity against human MIA PaCa-2 cells xenografted in athymic BALB/c-nu mouse assessed as fold change in 1-aminocyclopropanecarboxylicacid level in tumor at 10 mg/kg/day, ip administered five times per week for 4 weeks by LC-MS analysis", "type": "functional"}, "[28]": {"test_system": "MIA PaCa-2", "assay": "Antitumor activity against human MIA PaCa-2 cells xenografted in athymic BALB/c-nu mouse assessed as fold change in tyrosine level in tumor at 2 mg/kg/day, ip administered five times per week for 4 weeks by LC-MS analysis", "type": "functional"}}, "note": "Active and inactive are the calls of the source. The calls are words filed in the database; no cut-off is given here."}
{"smiles": "COc1cc(O)c(C(=O)[C@@H]2CC=C(CCC=C(C)C)C[C@H]2c2ccccc2)c(O)c1", "values": [{"measurement": "fold change (FC)", "setting": "[1]", "value": 0.62}, {"measurement": "fold change (FC)", "setting": "[2]", "value": 0.24}, {"measurement": "fold change (FC)", "setting": "[3]", "value": 0.43}, {"measurement": "inhibition", "setting": "[4]", "value": "Dose-Dependent Effect"}, {"measurement": "inhibition at 40 µM", "setting": "[5]", "value": 99, "unit": "%"}, {"measurement": "fold change (FC)", "setting": "[6]", "value": 3.68}, {"measurement": "Activity", "setting": "[7]", "value": "Active"}, {"measurement": "fold change (FC)", "setting": "[8]", "value": 0.44}, {"measurement": "Activity", "setting": "[9]", "value": "Active"}, {"measurement": "fold change (FC)", "setting": "[10]", "value": 0.44}, {"measurement": "fold change (FC)", "setting": "[11]", "value": 0.44}, {"measurement": "fold change (FC)", "setting": "[12]", "value": 0.4}, {"measurement": "fold change (FC)", "setting": "[13]", "value": 0.29}, {"measurement": "Activity", "setting": "[14]", "value": 181, "unit": "mg"}, {"measurement": "inhibition at 40 µM", "setting": "[15]", "value": 92, "unit": "%"}, {"measurement": "Activity", "setting": "[16]", "value": "Active"}, {"measurement": "fold change (FC)", "setting": "[17]", "value": 0.25}, {"measurement": "fold change (FC)", "setting": "[18]", "value": 0.76}, {"measurement": "inhibition", "setting": "[19]", "value": "Dose-Dependent Effect"}, {"measurement": "inhibition", "setting": "[20]", "value": "inactive"}, {"measurement": "Activity", "setting": "[21]", "value": "Active"}, {"measurement": "fold change (FC)", "setting": "[22]", "value": 0.4}, {"measurement": "fold change (FC)", "setting": "[23]", "value": 0.5}, {"measurement": "fold change (FC)", "setting": "[24]", "value": 0.43}, {"measurement": "fold change (FC)", "setting": "[25]", "value": 0.51}, {"measurement": "Activity", "setting": "[26]", "value": "Active"}, {"measurement": "fold change (FC)", "setting": "[27]", "value": 0.61}, {"measurement": "fold change (FC)", "setting": "[28]", "value": 0.41}]}
